# Assay results published in PMC6324813, “Biological evaluation of isoflavonoids from Genista halacsyi using estrogen-target cells: Activities of glucosides compared to aglycones” (PLoS ONE, 2019).
# Experiments:
# Ishikawa cells = test: Induction of AlkP expression in Ishikawa cells; assay type: cell-based, human
# How it was run: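 Ishikawa cells at 12,000 per well were grown in phenol-red-free MEM with 1 μg/mL insulin and 5% DCC-FBS, as an estrogenic read-out. AlkP activity versus isoflavonoid concentration was curve-fitted and AUC derived. AUC was expressed as % of the luciferase-response AUC of the matching archetypal isoflavone.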
# MCF-7 cells = test: MCF-7 cell proliferation (MTT); assay type: cell-based, human
# Protocol: Test compound effects on the proliferation of MCF-7 and MDA-MB-231 cells were assessed as previously described.
# MDA-MB-231 cells = test: MDA-MB-231 cell proliferation (MTT); assay type: cell-based; conditions: 0.1 nM estradiol, 1 μM ICI182,780, isoflavonoids 1 μM
# Protocol: Test compound effects on the proliferation of MCF-7 and MDA-MB-231 cells were assessed as previously described. […] Relative numbers of cells exposed to estradiol or to ICI182,780 acted as positive and negative control, respectively.
# MC3T3-E1 cells [1] = test: Differentiation of MC3T3-E1 cells to osteoblasts, AlkP activity; assay type: cell-based, mouse; conditions: DF + E2 1 nM or compound 1 μM; 6 days; DF plus vehicle = 100
# Protocol: (§1) Differentiation of MC3T3-E1 cells was carried out in 96-well plates using 3,300 cells per well and was assessed via induction of, i) Alkaline Phosphatase (AlkP) activity after 6 days of treatment and, ii) mineralization of extracellular matrix after 21 days of treatment. Briefly, 24 h after plating, the cells were incubated with test compounds or vehicle i.e. the compound diluent (0.1% DMSO) and then exposed for 6 days to differentiation medium in presence or absence of differentiation factors (cf. Cell culture) with a change to fresh compounds and medium in 3 days. AlkP activity was assessed at 405 nm in a Safire II microplate reader using as substrate p-nitrophenyl-phosphate (pNPP, Sigma-Aldrich) as already described. Mineralization of MC3T3 cells was assessed by staining with Alizarin red (Fluka). Cells were cultured and treated as described above for 21 days, with media and test compounds changed every 3 days, and calcium phosphate deposition was assayed as described by Gregory et al.. Briefly, the cells were washed twice with PBS and fixed with 70% ethanol for 15 min on ice. The cells were stained with Alizarin red solution (40 mM, pH 4.2) for 30 min at room temperature, washed twice with distilled water and once with PBS. The dye from the stained mineral deposits was extracted with 33% acetic acid and the absorbance was measured at 405 nm using a Safire II microplate reader (Tecan).
# MC3T3-E1 cells [2] = test: Mineralization of MC3T3-E1 cells, Alizarin red staining; assay type: cell-based, mouse; conditions: DF + E2 1 nM or compound 1 μM; 21 days; DF plus vehicle = 100
# Protocol: as §1, with “Differentiation of MC3T3-E1 cells to osteoblasts has been extensively used to screen for compounds that may promote bone formation. Differentiation” for “Differentiation”
# RAW 264.7 cells [3] = test: Differentiation of RAW 264.7 cells to osteoclasts, TRAP activity; assay type: cell-based, mouse; conditions: RANKL 50 ng/ml + E2 1 nM or compound 1 μM; 3 days; DF plus vehicle = 100
# Protocol: Clones of RAW 264.7 cells competent to differentiate to multinuclear osteoclasts upon activation with RANKL provide valuable information on the regulation of osteoclast differentiation. Differentiation-competent RAW cells (ATCC TIB-71) were seeded in 96-well plates at a density of 9,600 cells per well. The cells were plated in the presence of test compounds or compound diluent (0.1% DMSO) and, 4 h after plating, were exposed for 3 days to 50 ng/ml RANKL or to plain medium. Osteoclastic differentiation was assessed via induction of Tartrate-Resistant Acid Phosphatase (TRAP) activity. The cells were washed with PBS and incubated with 25μl lysis buffer (0.4 M NaCl, 25 mM Hepes pH 7.7, 1.5 mM MgCl2, 0.2 mM EDTA, 1% NP40) for 5 min on ice.
# HT22 cells [4] = test: Glutamate toxicity (oxytosis) of HT22 neuronal cells (MTT)
# Protocol: Glutamate-challenged HT22 cells suffer oxidative stress-induced cell death (oxytosis) within 24 h due to glutathione depletion and consequent massive accumulation of ROS [42]. The efficacy of test compounds to prevent oxytosis of HT22 cells was assessed as already described. Briefly, HT22 cells were plated in 96-well flat bottom plates at a density of 4,000 cells per well in 100 μl of DMEM (low glucose) containing 2% FBS. 24 h after plating, the cells were treated with test compounds or compound diluent (0.1% DMSO) and then challenged with 5 mM glutamate for 24 h. […] Non-challenged cells served to assess test compound effects on cell viability, whereas challenged cells served to assess the neuroprotective activity of test compounds.
# RAW 264.7 cells [5] = conditions: cited from earlier work
# HT22 cells [6] = conditions: cited from earlier work
# TNFα mRNA = conditions: estrogen-free RAW 264.7 cells; cited from earlier work
# ERβ = ERβ (Homo sapiens, UniProt Q92731); test: ERE-dependent luciferase gene transcription in HEK:ERβ cells; assay type: cell-based; design: expressed in transfected cells; host or cells: HEK-293 (HEK:ERβ clone, with pERE-tk-Luciferase); conditions: compounds 1 μM, estradiol 0.1 nM; 18 h
# Sequence of ERβ (Q92731 whole entry): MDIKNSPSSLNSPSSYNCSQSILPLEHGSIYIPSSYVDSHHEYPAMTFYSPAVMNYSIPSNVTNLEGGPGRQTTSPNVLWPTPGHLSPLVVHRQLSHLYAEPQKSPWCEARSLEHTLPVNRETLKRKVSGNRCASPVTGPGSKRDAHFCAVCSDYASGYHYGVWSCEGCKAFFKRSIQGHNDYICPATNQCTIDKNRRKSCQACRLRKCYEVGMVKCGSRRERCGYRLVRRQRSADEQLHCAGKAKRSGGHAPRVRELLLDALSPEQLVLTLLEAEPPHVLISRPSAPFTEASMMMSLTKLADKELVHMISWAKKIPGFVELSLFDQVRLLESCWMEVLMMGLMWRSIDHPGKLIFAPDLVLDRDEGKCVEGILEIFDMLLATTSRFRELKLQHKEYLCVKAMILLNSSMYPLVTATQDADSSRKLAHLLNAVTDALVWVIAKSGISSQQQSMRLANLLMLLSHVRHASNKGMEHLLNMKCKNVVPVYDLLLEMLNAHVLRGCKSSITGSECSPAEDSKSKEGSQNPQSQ
structure (smiles),measurement,setting,value
"C[C@]12CC[C@@H]3c4ccc(O)cc4CC[C@H]3[C@@H]1CC[C@@H]2O [Estradiol, 17β-estradiol, reference compound]",induction of AlkP expression,"Ishikawa cells; 0.1 nM estradiol, vs vehicle",3.68 fold
same,EC (25% of 0.1 nM E2 effect),"Ishikawa cells; Homo sapiens, Ishikawa, 72 h, concentration required to achieve 25% of the effect of 0.1 nM E2, read-out: Induction of Alkaline Phosphatase Expression (Ishikawa cells) EC25E2",9.83 ± 0.44 µM
same,activation at 1 µM,"Ishikawa cells; Homo sapiens, Ishikawa, 72 h, read-out: Induction of AlkP expression (Ishikawa cells) Agonism at 1μΜ (% of 0.1nM E2)",100 ± 9%
same,induction of proliferation of MCF-7 cells,"MCF-7 cells; 0.1 nM estradiol, vs vehicle",1.80 fold
same,activation at 1 µM,"MCF-7 cells; Homo sapiens, MCF7, 72 h, read-out: Induction of cell proliferation (MCF-7 cells) Agonism at 1μΜ (% of 0.1nM E2)",100 ± 19%
same,proliferation of MDA-MB-231 cells,MDA-MB-231 cells,not affected
same,"Differentiation of MC3T3-E1 cells, AlkP expression (%)",MC3T3-E1 cells [1],118±2 %
same,"Differentiation of MC3T3-E1 cells, Alizarin red staining (%)",MC3T3-E1 cells [2],134±7 %
same,"Differentiation of RAW 267.4 cells, TRAP expression (%)",RAW 264.7 cells [3],105±3%
same,viability of HT22 cells under normal growth conditions compared to vehicle-treated cells,"HT22 cells [4]; 1 nM estradiol or 1 μM compound, no glutamate",not different
same,viability at 0.001 µM,"HT22 cells [4]; Mus musculus, HT-22, 24 h, read-out: viability of glutamate-treated HT22 cells (% of glutamate-free cells)",≤ 40%
same,concentrations that inhibit osteoclastic differentiation of RAW 264.7 cells,RAW 264.7 cells [5],≥ 10 µM
same,prevention of oxytosis of glutamate-challenged HT22 cells,HT22 cells [6]; 1 μM estradiol or 2.5 μM genistein,unable to prevent oxytosis
same,IC50,"HT22 cells [6]; read-out: IC50, ER-dependent protection of glutamate-challenged HT22 cells from oxytosis",> 0.8 µM
same,suppression of TNFα mRNA expression and cytokine release after LPS,TNFα mRNA,unable to suppress
same,"Induction of luciferase gene transcription through ERβ, HEK:ERβ cells, Agonism at 1μΜ (% of 0.1nM E2)",ERβ,100 ± 12 % of 0.1nM E2
